Laboratory results from US20250282768A1 (Janssen Pharmaceutica NV, priority 2022, published 2025).

System: p-IKKa levels in L363 (NIK translocated multiple myeloma) cells
Test: Assay 2: Effect of compounds on p-IKKa levels in L363 (NIK translocated multiple myeloma) cells
Type: cell-based
Details: Homo sapiens, L-363, 6 h, read-out: Assay 2 IC50 (nM), p-IKKa (Ser 176/180) in BAFF stimulated L363 cells with MG132, 6 h; average if tested more than once
Summary of the method: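 L363 cells incubated overnight ± 250 ng/ml BAFF, then 6 h at 37 °C with compound (0.3% DMSO) ± 10 μM MG132. Lysates assayed for p-IKKa (Ser176/180) by AlphaLISA SureFire. IC50 from sigmoidal fit of % inhibition normalized to BAFF/MG132-stimulated and unstimulated controls.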

SMILES	IC50 [nM]
C[C@@H](Nc1nccc(-c2cccc(-n3cc([C@]4(O)CCN(C)C4=O)nn3)n2)n1)c1ncccn1 (single isomer, unassigned) [Example 142]	50 to 500
CN1CC[C@@](O)(c2cn(-c3cccc(-c4ccnc(Nc5ccn(C)n5)n4)n3)nn2)C1=O [Example 75, (R)-3-Hydroxy-1-methyl-3-(1-(6-(2-((1-methyl-1H-pyrazol-3-yl)amino)pyrimidin-4-yl)pyridin-2-yl)-1H-1,2,3-triazol-4-yl)pyrrolidin-2-one]	< 50
Cc1ccc(Nc2nccc(-c3cccc(-c4cc([C@]5(O)CCN(C)C5=O)on4)n3)n2)nn1 [Example 256, (R)-3-Hydroxy-1-methyl-3-(3-(6-(2-((6-methylpyridazin-3-yl)amino)pyrimidin-4-yl)pyridin-2-yl)isoxazol-5-yl)pyrrolidin-2-one]	50 to 500
[2H]c1cc(-c2cccc(-c3cc([C@]4(O)CCN(C)C4=O)no3)n2)nc(Nc2ccn(C)n2)n1 [Example 200, (R)-3-Hydroxy-1-methyl-3-(5-(6-(2-((1-methyl-1H-pyrazol-3-yl)amino)pyrimidin-4-yl-6-d)pyridin-2-yl)isoxazol-3-yl)pyrrolidin-2-one]	< 50
C[C@@H](Nc1nccc(-c2cccc(-c3cc([C@]4(O)CCN(C)C4=O)on3)n2)n1)C(=O)N1CC(C(F)(F)F)C1 [Example 171, (R)-3-Hydroxy-1-methyl-3-(3-(6-(2-(((R)-1-oxo-1-(3-(trifluoromethyl)azetidin-1-yl)propan-2-yl)amino)pyrimidin-4-yl)pyridin-2-yl)isoxazol-5-yl)pyrrolidin-2-one]	50 to 500
CN1CC[C@@](O)(c2cn(-c3cccc(-c4ccnc(Nc5cnn6ccccc56)n4)n3)nn2)C1=O [Example 121, (R)-3-Hydroxy-1-methyl-3-(1-(6-(2-(pyrazolo[1,5-a]pyridin-3-ylamino)pyrimidin-4-yl)pyridin-2-yl)-1H-1,2,3-triazol-4-yl)pyrrolidin-2-one]	< 50
CN1CC[C@@](O)(c2cn(-c3cc(C(F)F)cc(-c4ccnc(Nc5cnn(C)c5)n4)n3)nn2)C1=O [Example 137, (R)-3-(1-(4-(Difluoromethyl)-6-(2-((1-methyl-1H-pyrazol-4-yl)amino)pyrimidin-4-yl)pyridin-2-yl)-1H-1,2,3-triazol-4-yl)-3-hydroxy-1-methylpyrrolidin-2-one]	< 50
CN1CC[C@@](O)(c2cc(-c3cccc(-c4ccnc(N[C@@H]5CCCC[C@@H]5O)n4)n3)no2)C1=O [Example 357, (R)-3-Hydroxy-3-(3-(6-(2-(((1R,2S)-2-hydroxycyclohexyl)amino)pyrimidin-4-yl)pyridin-2-yl)isoxazol-5-yl)-1-methylpyrrolidin-2-one]	> 500
CN1CC[C@@](O)(c2cc(-c3cccc(-c4ccnc(Nc5cnn(CCF)c5)n4)n3)no2)C1=O [Example 61, (R)-3-(3-(6-(2-((1-(2-Fluoroethyl)-1H-pyrazol-4-yl)amino)pyrimidin-4-yl)pyridin-2-yl)isoxazol-5-yl)-3-hydroxy-1-methylpyrrolidin-2-one]	< 50
